pIC50: −log10 of the molar value.

Data set [1] concerns MM1.S. In words: Cytotoxicity against human MM1.S cells assessed as inhibition of cell growth incubated for 72 hrs measured by spectrophotometer analysis. The class given is functional, cell-based.
Data set [2] in a line: Half life in CD-1 mouse at 20 mg/kg, ip. It counts as ADME, organism-based. As to conditions: in vivo.
Data set [3] in a line: Cmax in CD-1 mouse at 20 mg/kg, ip. The class given is ADME, organism-based. On the set-up: dose 20 mg/kg, route ip. As to conditions: in vivo.
A short description of data set [4]: AUClast in CD-1 mouse at 20 mg/kg, ip. On the set-up: time 0 - last, dose 20 mg/kg, route ip. The settings on record: in vivo. The class given is ADME, organism-based.
Data set [5] can be described thus: AUCinfinity in CD-1 mouse at 20 mg/kg, ip. The class given is ADME, organism-based. More on the design: time infinity, dose 20 mg/kg, route ip. As to conditions: in vivo.
Data set [6] can be described thus: AUC/D in CD-1 mouse at 20 mg/kg, ip. The class given is ADME, organism-based. The settings on record: in vivo.
Data set [7] in a line: in vitro. The settings on record: human, MRC9 cells.

One may read the pIC50 as the negative decadic logarithm of the IC50, by convention in mol/L. Broadly, the half-life is the time in which the quantity being followed falls by half. A high value points to slow decline. As usually defined, the Cmax is the maximum level reached in the sampled fluid or tissue. One may read the AUC(0-t) as exposure summed from dosing to a finite time, without extrapolation to infinity. For orientation: AUC(0-inf) means total exposure, with the tail of the curve extrapolated. A low value points to low exposure. As usually defined, the IC50 is the concentration that gives 50% inhibition. Read a high IC50 as weaker potency. For the molecule `CCCCN(Cc1ccc(C(=O)NO)cc1)C(=O)Nc1ccccc1` [NEXTURASTAT A], the pIC50 in data set [1] was 5.75. In addition, the half-life in data set [2] is 1.9 h. This molecule displayed a Cmax in data set [3] of 750 ng/mL. For the same molecule, the AUC(0-t) in data set [4] was 2520 ng·h/mL. In data set [5], this molecule yielded an AUC(0-inf) of 2550 ng·h/mL. This molecule had an AUC/dose in data set [6] of 126 ng·h/mL. The IC50 at 72 h in data set [7] was greater than 20 µM.

The values above are taken from ChEMBL document CHEMBL5154721, “Discovery of HDAC6-Selective Inhibitor NN-390 with in Vitro Efficacy in Group 3 Medulloblastoma” (J Med Chem, 2022).
